Tested on: A375 human melanoma xenografts
Assay: In vivo therapeutic efficacy in A375 human melanoma xenografts (tumor volume, T/C, TGI), Example 14
Set-up: species or system human tumor in female BALB/c nude mice
Details: for T/C / TGI: PG-D21
Protocol: Agents were tested in the A375 human melanoma xenografts. Compound 26 and Compound 141 were administered to BALB/c nude mice bearing A375 tumors from PG-DO and dosed via PO twice a day (BID) or third a day (TIP) or dosed P daily (QD) from PG-D. Dabrafenib was administered to BALB/c nude mice bearing A375 tumors from PG-D1 and dosed via P daily (QD). Compound 26 was dosed at 1.5 mg/kg (QD), 2 mg/kg (TID), 3 mg/kg (BID), 6 mg/kg (QD) and 10 mg/kg (BID) for 21 days. Compound 141 was dosed at 0.75 mg/kg (BID), 1 mg/kg (TID), 1.5 mg/kg (BID), 3 mg/kg (QD) and 5 mg/kg (BID) for 21 days. Dabrafenib was dosed at 100 mg/kg for 21 days. This study was non-GLP.
One hundred and thirty-eight female BALB/c nude Mus Musculus mice procured from Shanghai Lingchang Biological Science and Technology Co., LTD between the ages of six to eight weeks and with body weight between eighteen and twenty-two grams were used for the study. A spare mouse was also procured.
The A375 tumor cells were maintained in vitro in DMEM medium supplemented with 10% fetal bovine serum and 1% Penicillin-Streptomycin at 37° C. in an atmosphere of 5% CO2 in air. The tumor cells were routinely sub-cultured twice weekly. The cells growing in an exponential growth phase were harvested and counted for tumor inoculation.
Each mouse was inoculated subcutaneously at the right flank with A375 cells (5×10^6) in 0.2 mL of PBS supplemented with Matrigel (PBS: Matrigel=1:1) for tumor development. Animals were grouped for efficacy study on day 15 after tumor inoculation when the average tumor volume reached 220 mm^3. The test articles administration and the animal numbers in each group are shown in the above experimental Table 75.
At the time of routine monitoring, the animals were checked daily for any effects of tumor growth and treatments on normal behavior such as mobility, food and water consumption (by looking only), body weight gain/loss (body weights were measured twice weekly), eye/hair matting and any other abnormal effect as stated in the protocol. Death and observed clinical signs were recorded on the basis of the numbers of animals within each subset.
Prior to the onset of drug treatment, mice were measured for tumor size in two dimensions using a caliper, and the tumor volume (mm^3) was calculated using formula V=0.5 a×b^2 where a and b are the long and short diameters of the tumor in mm, respectively. Mice were randomized into different treatment groups based on the tumor volume.
The major endpoint was to see if the tumor growth could be delayed or mice could be cured. The tumor size was then used for calculations of T/C value. The T/C value (in percent) is an indication of antitumor effectiveness; T and C are the mean volumes of the treated and control groups, respectively on specified day.
TGI was calculated for each group using the formula: TGI (%)=[1−(Ti−T0)/(Ci−C0)]×100; Ti is the average tumor volume of a treatment group on a given day, T0 is the average tumor volume of the treatment group on the day of treatment start, Ci is the average tumor volume of the vehicle control group on the same day with Ti, and C0 is the average tumor volume of the vehicle group on the day of treatment start.
A one-way ANOVA followed by Dunnett's multiple comparison test was performed to compare tumor volume among vehicle group (Group 1) and treatment groups (Group 2-Group 12). All data were analyzed using GraphPad Prism, ns indicates p>0.05, * indicates p<0.05, ** indicates p<0.01, *** indicates p<0.001 and **** indicates p<0.0001.
Tumor growth inhibition of Compound 26, Compound 141 and dabrafenib in the treatment of female BALB/c nude mice bearing A375 xenografts was calculated based on tumor volume measured on […]. TGI and T/C were calculated respectively and the data are detailed in Table 82.

[1] = Compound 141, 1.5 mg/kg p.o. BID × 21 days

Compound: CCN(C)S(=O)(=O)Nc1ccc(F)c(Oc2ccc3ncn(C4CC5(CCN(C6CC7(C6)CN(c6cc8c(cc6F)c(N6CCC(=O)NC6=O)nn8C)C7)CC5)C4)c(=O)c3c2)c1C#N (stereo not drawn) [Compound 141, 6-[2-cyano-3-[[ethyl(methyl)sulfamoyl]amino]-6-fluoro-phenoxy]-3-[7-[2-[3-(2,4-dioxohexahydropyrimidin-1-yl)-5-fluoro-1-methyl-indazol-6-yl]-2-azaspiro[3.3]heptan-6-yl]-7-azaspiro[3.5]nonan-2-yl]-4-oxo-quinazoline]
- Tumor volume (1.5 mg/kg p.o. BID x 21 days, day 35 (dosing-free regrowth), mean ± SEM): 1374 ± 116 mm^3
- Tumor volume (1.5 mg/kg p.o. BID x 21 days, day 39 (dosing-free regrowth), mean ± SEM): 1709 ± 117 mm^3
- Tumor volume (1.5 mg/kg p.o. BID x 21 days, day 42 (dosing-free regrowth), mean ± SEM): 2051 ± 177 mm^3
- Tumor volume (1.5 mg/kg p.o. BID x 21 days, day 46 (dosing-free regrowth), mean ± SEM): 2593 ± 258 mm^3
- Tumor volume (1.5 mg/kg p.o. BID x 21 days, day 49 (dosing-free regrowth), mean ± SEM): 2727 ± 382 mm^3
- Tumor volume (1.5 mg/kg p.o. BID x 21 days, day 53 (dosing-free regrowth), mean ± SEM): 3079 ± 78 mm^3
- Tumor volume (3 mg/kg p.o. QD x 21 days, day 0, mean ± SEM): 220 ± 15 mm^3
- Tumor volume (3 mg/kg p.o. QD x 21 days, day 4, mean ± SEM): 253 ± 15 mm^3
- Tumor volume (3 mg/kg p.o. QD x 21 days, day 7, mean ± SEM): 214 ± 17 mm^3
- Tumor volume (3 mg/kg p.o. QD x 21 days, day 11, mean ± SEM): 169 ± 15 mm^3
- Tumor volume (3 mg/kg p.o. QD x 21 days, day 14, mean ± SEM): 144 ± 16 mm^3
- Tumor volume (3 mg/kg p.o. QD x 21 days, day 18, mean ± SEM): 172 ± 19 mm^3
- Tumor volume (3 mg/kg p.o. QD x 21 days, day 21, mean ± SEM): 208 ± 30 mm^3
- Tumor volume (3 mg/kg p.o. QD x 21 days, day 25 (dosing-free regrowth), mean ± SEM): 486 ± 63 mm^3
- Tumor volume (3 mg/kg p.o. QD x 21 days, day 28 (dosing-free regrowth), mean ± SEM): 773 ± 63 mm^3
- Tumor volume (3 mg/kg p.o. QD x 21 days, day 32 (dosing-free regrowth), mean ± SEM): 985 ± 85 mm^3
- Tumor volume (3 mg/kg p.o. QD x 21 days, day 35 (dosing-free regrowth), mean ± SEM): 1339 ± 71 mm^3
- Tumor volume (3 mg/kg p.o. QD x 21 days, day 39 (dosing-free regrowth), mean ± SEM): 1690 ± 103 mm^3
- Tumor volume (3 mg/kg p.o. QD x 21 days, day 42 (dosing-free regrowth), mean ± SEM): 2099 ± 177 mm^3
- Tumor volume (3 mg/kg p.o. QD x 21 days, day 46 (dosing-free regrowth), mean ± SEM): 2737 ± 176 mm^3
- Tumor volume (3 mg/kg p.o. QD x 21 days, day 49 (dosing-free regrowth), mean ± SEM): 3078 ± 168 mm^3
- Tumor volume (3 mg/kg p.o. QD x 21 days, day 53 (dosing-free regrowth)): 3659 mm^3
- Tumor Size on PG-D21 (Mean ± SEM) (3 mg/kg p.o. QD × 21 days): 208 ± 30 mm^3
- T/C (3 mg/kg p.o. QD × 21 days): 11.0%
- TGI (3 mg/kg p.o. QD × 21 days): 100.8%
- Tumor volume (5 mg/kg p.o. BID x 21 days, day 0, mean ± SEM): 220 ± 15 mm^3
- Tumor volume (5 mg/kg p.o. BID x 21 days, day 4, mean ± SEM): 166 ± 11 mm^3
- Tumor volume (5 mg/kg p.o. BID x 21 days, day 7, mean ± SEM): 100 ± 7 mm^3
- Tumor volume (5 mg/kg p.o. BID x 21 days, day 11, mean ± SEM): 60 ± 4 mm^3
- Tumor volume (5 mg/kg p.o. BID x 21 days, day 14, mean ± SEM): 38 ± 2 mm^3
- Tumor volume (5 mg/kg p.o. BID x 21 days, day 18, mean ± SEM): 27 ± 3 mm^3
- Tumor volume (5 mg/kg p.o. BID x 21 days, day 21, mean ± SEM): 23 ± 3 mm^3
- Tumor volume (5 mg/kg p.o. BID x 21 days, day 25 (dosing-free regrowth), mean ± SEM): 31 ± 9 mm^3
- Tumor volume (5 mg/kg p.o. BID x 21 days, day 28 (dosing-free regrowth), mean ± SEM): 56 ± 24 mm^3
- Tumor volume (5 mg/kg p.o. BID x 21 days, day 32 (dosing-free regrowth), mean ± SEM): 109 ± 40 mm^3
- Tumor volume (5 mg/kg p.o. BID x 21 days, day 35 (dosing-free regrowth), mean ± SEM): 190 ± 67 mm^3
- Tumor volume (5 mg/kg p.o. BID x 21 days, day 39 (dosing-free regrowth), mean ± SEM): 345 ± 111 mm^3
- Tumor volume (5 mg/kg p.o. BID x 21 days, day 42 (dosing-free regrowth), mean ± SEM): 484 ± 147 mm^3
- Tumor volume (5 mg/kg p.o. BID x 21 days, day 46 (dosing-free regrowth), mean ± SEM): 732 ± 181 mm^3
- Tumor volume (5 mg/kg p.o. BID x 21 days, day 49 (dosing-free regrowth), mean ± SEM): 1015 ± 308 mm^3
- Tumor volume (5 mg/kg p.o. BID x 21 days, day 53 (dosing-free regrowth), mean ± SEM): 1470 ± 351 mm^3
- Tumor volume (5 mg/kg p.o. BID x 21 days, day 56 (dosing-free regrowth), mean ± SEM): 1433 ± 181 mm^3
- Tumor Size on PG-D21 (Mean ± SEM) (5 mg/kg p.o. BID × 21 days): 23 ± 3 mm^3
- T/C (5 mg/kg p.o. BID × 21 days): 1.2%
- TGI (5 mg/kg p.o. BID × 21 days): 111.8%
- Tumor Size on PG-D21 (Mean ± SEM) [1]: 208 ± 21 mm^3
- T/C [1]: 11.1%
- TGI [1]: 100.7%
